Assay results published in publication PMC12189671, “Antioxidant Activity and Cytotoxicity Evaluation of New Catechol Hydrazinyl-Thiazole Derivatives as Potential Protectors in Retinal Degenerative Processes” (Antioxidants, 2025).

Experiments:
[1] = ABTS radical cation decolorization assay; conditions: 10 min incubation, pH 7.4, λ = 734 nm
Protocol: The ABTS^•+ (2,2′-azinobis-(3-ethylbenzothiazoline-6-sulfonic acid) decolorization assay, based on the method of Re et al., was performed in the concentration range of 1 to 25 µM according to protocols previously reported by our group. The reagent was prepared in a 0.1 M potassium phosphate buffer (pH 7.4) and activated overnight with MnO2 [89]. Prior to use, the stability of the ABTS^•+ reagent was verified by checking its absorbance at λ = 734 nm over one hour, ensuring a consistent absorption of around 0.7. The mixtures were incubated for 10 min in the dark at room temperature. The absorbance of the samples is given by the remaining unreacted reagent radical, and it is inversely proportional to the amount of ABTS^•+ neutralized. The ABTS^•+ scavenging activity of compounds was calculated using Equation (2).(2) ABTS^•^+ scavenging (%)=control absorbance−sample absorbance/control absorbance×100

[2] = Ferrous ions chelation assay (ferrozine)
Protocol: Solutions of the tested compounds or ethylenediaminetetraacetic acid disodium salt (EDTA-Na2), used as a positive control, were thoroughly mixed with 0.5 mL of FeSO4 (0.125 mM) and 0.5 mL of ferrozine (0.315 mM). After a 10-min incubation in the dark at room temperature, the absorbance was measured at λ = 562 nm.

[3] = test system: rat microsomal membrane lipid peroxidation; assay: Lipid peroxidation inhibition assay (LPI), 2-thiobarbituric acid method; type: biochemical; conditions: for IC50: ascorbic acid/Fe^2+ system, 37 °C, 45 min
Protocol: Rat liver microsomes were homogenized in saline, and the resulting homogenates were centrifuged at 9000× g for 20 min at 4 °C to remove cell debris. The supernatant underwent ultracentrifugation at 110,000× g for 40 min at 4 °C. The pelleted microsomal fraction was subsequently washed with saline via another round of ultracentrifugation under identical conditions. Thereafter, the pellet was resuspended in Tris-HCl buffer (pH 7.4) to achieve a concentration equivalent to 0.5 g liver per mL and was stored until further analysis (at −80 °C). For the assay, the microsomal preparation was thermally inactivated by incubation at 90 °C for 90 s, then homogenized again and diluted to a final concentration equivalent to 4 mM fatty acid equivalents. […] All mixtures were incubated at 37 °C under air with continuous shaking. […] This was followed by heating at 90 °C for 20 min and centrifugation at 3000 rpm for 15 min. As a result of the breakdown of unsaturated fatty acids, malondialdehyde reacts with the 2-thiobarbituric acid to produce a pink compound due to the formation of a Schiff base. The extent of lipid peroxidation was measured spectrophotometrically at 535/600 nm, which is proportional to the amount of the chromogen reaction product formed between 2-thiobarbituric acid and malondialdehyde. The determinations were performed in triplicate, and the standard deviation was within ±10% of the mean value.

[4] = Reducing Power (RP) assay; conditions: molar equivalents of reference compound
Description: The results of the evaluation of the electron ability transfer of the tested compound were expressed as molar equivalents of the reference compound per one mol of the tested compound using the formula: % of control activity=sample absorbance/reference absorbance×100 In the Reducing Power (RP) assay, the tested compounds reduce ferric ions from potassium ferricyanide, forming ferrocyanide, which produces a blue complex. The protocol used is an adaptation of previously reported methodologies. […] The tubes were sealed and incubated for 20 min in a water bath at 50 °C. […] Subsequently, 250 µL of the resulting solutions were mixed with 140 µL of FeCl3 solution (0.1% w/v) and 1000 µL of distilled water, and the absorbance of the resulting solutions was measured at λ = 695 nm.

[5] = Ferric Reducing Antioxidant Potential (FRAP) assay; conditions: molar equivalents of reference compound
Description: The results of the evaluation of the electron ability transfer of the tested compound were expressed as molar equivalents of the reference compound per one mol of the tested compound using the formula: % of control activity=sample absorbance/reference absorbance×100 The Ferric Reducing Antioxidant Potential (FRAP) assay measures the ability of an antioxidant to transfer an electron to Fe^3+, converting it to Fe^2+. […] The solutions were thoroughly mixed in the dark, and their absorbance was measured spectrophotometrically at λ = 593 nm.

[6] = Cell viability (resazurin) on ARPE-19; type: cell-based, human; conditions: human, ARPE-19 cells; for IC50 at 24 h: ARPE-19, 24 h, read-out: 24 h Exposure IC50 (cytotoxicity); for IC50 at 48 h: ARPE-19, 48 h, read-out: 48 h Exposure IC50 (cytotoxicity)
Description: (§1) The ARPE-19 cell line was purchased from CLS Cell Lines Service GmbH (Eppelheim, Germany) and cultured in Dulbecco’s modified Eagle’s medium/F-12 (HAM) 1:1 (Biological Industries, Beit, Israel). The medium was supplemented with 10% fetal bovine serum (FBS) (Thermo Fisher Scientific, Waltham, MA, USA) and 1% penicillin-streptomycin (Biosera, Cholet, France). The cancerous cell line A549 was purchased from ATCC (Manassas, VA, USA) and cultivated in high-glucose Dulbecco’s modified Eagle’s medium (DMEM 4.5 g/L). The normal BJ cell line was also purchased from ATCC (Manassas, VA, USA) and was cultivated in low-glucose Dulbecco’s modified Eagle’s medium (DMEM 1 g/L). The media was supplemented in both cases with 10% FBS. Cells were cultured in T75 flasks and incubated at 37 °C in a humidified incubator with 5% CO2 supplementation. For maintenance, the media was changed every 2–3 days, and when the confluence of the flask reached approximately 85%, the cells were either subcultured or further used in the experiments.
(§2) ARPE-19 cells were seeded at a density of 2 × 10^4 cells/well and 1 × 10^4 cells/well (suspended in 100 µL) in 96-well plates for 24 h and 48 h, respectively. For the BJ cells, the seeding density was 0.5 × 10^4 cells/well and 0.3 × 10^4 cells/well for 24 h and 48 h, respectively, and for the A549 cells, 1.5 × 10^4 cells/well for 24 h and 0.75 × 10^4 cells/well for 48 h. As cells have different sizes and volumes, the different seeding densities were selected to reach a confluency of 80–90% by the end of the experiments. Cells were further exposed to the synthesized compounds for 24/48 h at concentrations ranging from 12.5 to 500 µM. After the incubation period, the exposure media was removed, the cells were washed with PBS, and further incubated with a 200 µM resazurin solution for 3 h as described in our previous report. The conversion of resazurin to the fluorescent resorufin compound by viable cells was measured at λexcitation = 550; λemission = 600, using SpectraMax iD3 (Molecular Devices, San Jose, CA, USA). The experiments were conducted in biological triplicate, each with a minimum of 3 technical replicates. The measured viability was expressed as relative values to the control (cells exposed only to the vehicle–culture medium containing 0.4% DMSO).

[7] = test system: ARPE-19 cells; assay: Cell viability (resazurin) on ARPE-19; type: cell-based, human; conditions: ARPE-19, up to 50 µM
Description: as §1, §2

With `C/C=C/C=N/Nc1nc(-c2ccc(O)c(O)c2)cs1.Cl` [Compound 5a, 4-(2-(2-((1E,2E)-but-2-en-1-ylidene)hydrazineyl)thiazol-4-yl)benzene-1,2-diol hydrochloride] the IC50 [1] was 4.67 µM, the “% of ferrous ions chelation” value ([2]; 50 nM) was “− (less than 5% chelation activity)” and the “% of ferrous ions chelation” value ([2]; 100 nM) was “− (less than 5% chelation activity)”. For the same molecule, the “% of ferrous ions chelation” value ([2]; 150 nM) was “− (less than 5% chelation activity)”, the “% of ferrous ions chelation” value ([2]; 175 nM) was “− (less than 5% chelation activity)” and the “% of ferrous ions chelation” value ([2]; 200 nM) was “− (less than 5% chelation activity)”. The “fold more active than Trolox in lipid peroxidation inhibition” value [3] was “approximately 7.5 fold”, the IC50 [3] was 3.34 µM and the “RP Eq Ascorbic Acid” value [4] was 2.55 Eq Ascorbic Acid. The “RP Eq Trolox” value [4] was 2.12 Eq Trolox, the “FRAP Eq Trolox” value [5] was 1.49 Eq Trolox and the IC50 at 24 h [6] was 90.1 µM. For the same molecule, the IC50 at 48 h [6] was 92.7 µM and the “effect on ARPE-19 cell viability” value [7] was “slight proliferative effect”.

For `CC1=C(/C=C/C(C)=N/Nc2nc(-c3ccc(O)c(O)c3)cs2)C(C)(C)CCC1.Cl` [Compound 5b, 4-(2-(2-((2E,3E)-4-(2,6,6-trimethylcyclohex-1-en-1-yl)but-3-en-2-ylidene) hydrazineyl)thiazol-4-yl)benzene-1,2-diol hydrochloride], the IC50 [1] was 5.03 µM, the “% of ferrous ions chelation” value ([2]; 50 nM) was “− (less than 5% chelation activity)” and the “% of ferrous ions chelation” value ([2]; 100 nM) was “− (less than 5% chelation activity)”. The “% of ferrous ions chelation” value ([2]; 150 nM) was “− (less than 5% chelation activity)”, the “% of ferrous ions chelation” value ([2]; 175 nM) was “− (less than 5% chelation activity)” and the “% of ferrous ions chelation” value ([2]; 200 nM) was “− (less than 5% chelation activity)”. The IC50 [3] was 12.9 µM, the “RP Eq Ascorbic Acid” value [4] was 1.90 Eq Ascorbic Acid and the “RP Eq Trolox” value [4] was 1.58 Eq Trolox. For the same molecule, the “FRAP Eq Trolox” value [5] was 1.39 Eq Trolox, the IC50 at 24 h [6] was 31.5 µM and the IC50 at 48 h [6] was 52.1 µM. It also gave a viability at 24 h, 12.5 µM ([6]; ARPE-19, 24-h exposure, 12.5 µM, read-out: cell viability (% of control)) of 63.5%.
